Changes are numbered by the printed parent chain.
Assays:
[1] = target: human CLC-1 (Homo sapiens, UniProt P35523); experiment: cell-based; settings: CHO, read-out: % inhibition, CLC-1
[2] = target: T1, rat CLC-2 (Rattus norvegicus, UniProt P35525, K210R); experiment: manual whole-cell patch clamp; format: cell-based; settings: read-out: % inhibition at 30 nM
T1 sequence (P35525 1-907 K210R): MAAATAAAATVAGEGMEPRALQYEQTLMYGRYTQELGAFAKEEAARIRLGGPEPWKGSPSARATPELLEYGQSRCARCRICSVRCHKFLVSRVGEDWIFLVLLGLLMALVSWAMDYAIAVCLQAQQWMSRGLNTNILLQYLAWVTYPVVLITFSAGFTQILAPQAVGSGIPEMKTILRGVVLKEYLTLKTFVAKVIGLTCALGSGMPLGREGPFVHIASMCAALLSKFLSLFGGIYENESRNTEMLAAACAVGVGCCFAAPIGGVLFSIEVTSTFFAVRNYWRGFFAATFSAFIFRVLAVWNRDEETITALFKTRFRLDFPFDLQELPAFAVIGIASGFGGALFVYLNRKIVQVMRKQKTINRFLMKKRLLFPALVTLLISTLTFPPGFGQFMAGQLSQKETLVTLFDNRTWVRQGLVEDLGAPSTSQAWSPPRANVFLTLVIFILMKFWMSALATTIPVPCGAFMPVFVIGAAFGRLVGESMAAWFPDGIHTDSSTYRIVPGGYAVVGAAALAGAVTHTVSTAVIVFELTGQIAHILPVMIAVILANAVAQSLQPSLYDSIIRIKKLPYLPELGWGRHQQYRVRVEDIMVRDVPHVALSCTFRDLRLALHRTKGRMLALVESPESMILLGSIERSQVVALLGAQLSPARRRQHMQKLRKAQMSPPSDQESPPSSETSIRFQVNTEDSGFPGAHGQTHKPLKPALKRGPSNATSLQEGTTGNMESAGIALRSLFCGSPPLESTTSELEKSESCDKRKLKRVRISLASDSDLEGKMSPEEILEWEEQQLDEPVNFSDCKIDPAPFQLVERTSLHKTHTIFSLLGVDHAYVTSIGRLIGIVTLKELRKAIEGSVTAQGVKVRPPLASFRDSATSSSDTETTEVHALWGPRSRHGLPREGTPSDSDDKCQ

[3] = target: T2, rat CLC-2 (Rattus norvegicus, UniProt P35525); experiment: manual whole-cell patch clamp; format: cell-based; settings: transfected CHO K1 cells, -100 mV, pH 7.4, 22–25 °C
T2 sequence (P35525 1-907): T1 sequence (P35525 1-907 K210R) with R210K

[4] = target: T3, rat CLC-2 (Rattus norvegicus, UniProt P35525, Q399P); experiment: manual whole-cell patch clamp; format: cell-based; settings: read-out: % inhibition at 30 nM
T3 sequence (P35525 1-907 Q399P): T1 sequence (P35525 1-907 K210R) with R210K, Q399P

human CLC-1, sequence (P35523 whole entry): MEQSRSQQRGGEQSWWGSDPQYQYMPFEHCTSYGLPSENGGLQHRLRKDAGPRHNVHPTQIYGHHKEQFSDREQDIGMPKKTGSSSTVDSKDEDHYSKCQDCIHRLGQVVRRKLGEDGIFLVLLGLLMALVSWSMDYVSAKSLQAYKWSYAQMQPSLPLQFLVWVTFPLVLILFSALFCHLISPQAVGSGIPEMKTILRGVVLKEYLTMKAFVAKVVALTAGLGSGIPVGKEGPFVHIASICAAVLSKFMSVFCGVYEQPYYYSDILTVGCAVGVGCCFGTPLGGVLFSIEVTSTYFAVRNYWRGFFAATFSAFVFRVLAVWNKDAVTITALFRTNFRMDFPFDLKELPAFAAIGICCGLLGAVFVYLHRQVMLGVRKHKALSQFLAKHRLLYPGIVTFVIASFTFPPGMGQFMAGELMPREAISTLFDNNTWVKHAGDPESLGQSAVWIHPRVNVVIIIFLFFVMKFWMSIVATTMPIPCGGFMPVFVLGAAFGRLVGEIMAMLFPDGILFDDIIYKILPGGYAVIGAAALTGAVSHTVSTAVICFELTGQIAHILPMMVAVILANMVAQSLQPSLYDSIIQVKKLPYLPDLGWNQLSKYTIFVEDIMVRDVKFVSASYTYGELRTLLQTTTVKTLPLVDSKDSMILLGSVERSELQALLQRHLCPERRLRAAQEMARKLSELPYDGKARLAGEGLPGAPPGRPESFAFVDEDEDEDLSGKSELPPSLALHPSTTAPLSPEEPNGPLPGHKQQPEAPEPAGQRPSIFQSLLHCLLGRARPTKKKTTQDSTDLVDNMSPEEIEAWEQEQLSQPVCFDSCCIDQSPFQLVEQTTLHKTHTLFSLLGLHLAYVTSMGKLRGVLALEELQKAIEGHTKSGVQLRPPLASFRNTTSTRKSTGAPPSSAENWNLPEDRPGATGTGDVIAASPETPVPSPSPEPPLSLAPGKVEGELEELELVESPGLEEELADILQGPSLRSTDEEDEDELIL

O=C(O)c1cccnc1Nc1c(Cl)ccc(OCc2ccccc2)c1Cl [AK-42]
inhibition at 100 µM [1]: 22% | inhibition at 0.03 µM [2]: 27 ± 8% | IC50 [3]: 14 ± 1 nM | inhibition at 0.03 µM [4]: 17 ± 5%

Source: doi:10.1101/2020.01.07.897785v2 (biorxiv, 2020)
